Here are results for 4 compounds from patent US5324725A, “7-fused 2-(piperazinoalkyl) indole derivatives, intermediates and compositions thereof” (Kali-Chemie Pharma GmbH, priority 1991, dated 1994).

Data set [1] relates to Passive cutaneous anaphylaxis (P.C.A.). The data set can be described thus: Inhibition of passive cutaneous anaphylaxis (P.C.A.). It is filed as in vivo, rat (Sprague-Dawley). Particulars: Rattus norvegicus, 1 h; rats, 2 × 10^-5 mol/kg p.o., one hour before ovalbumin challenge. The method, then:
(§1) 1. Determination of the inhibition of passive cutaneous anaphylaxis (P.C.A.) and of the anaphylactoid cutaneous reaction induced by histamine.
The P.C.A. reaction was carried out according to the methods described by Goose et al. (J.N. Immunology 16 (1969), 749) and by Martin et al (Arch. Pharmacol. 316 (1981), 186}.
The IgE-rich ovalbumin antiserum used in the test was obtained from immunized Brown-Norway rats. For immunization, the rats were given an i.p. injection of a mixture of 100 μg of ovalbumin with a Bordetella pertussis suspension (Vaxicoq®, Manufacturer: Institut Merieux, containing 5×10^9 organisms and 1.25 mg of Al(OH)3). After 20 days, the animals received a further i.p. injection of a solution of 10 μg of ovaIbumin in 0.5 ml of physiological saline solution for reimmunisation. After a further four days, the animals were bled, and the blood was centrifuged The antiserum obtained in this way was stored at -20° C. until use.
(§2) The determination of the inhibition of passive cutaneous anaphylaxis and the anaphylactoid cutaneous reaction induced by histamine was carried out as follows:
Sprague-Dawley rats having a body weight of 150-180 g were injected intradermally in one flank with 50 μl of a 1:75 dilution of the IgE-rich ovalbumin antiserum in physiological sodium chloride solution for passive sensitization to ovalbumin.
24 hours after sensitization a solution of 8.25 mg/kg of ovalbumin and 26.4 mg/kg of a blue dye (Evans' Blue) was administered i.v. to the rats according to Martin et al. to induce passive cutaneous anaphylaxis. The ovalbumin challenge caused a local anaphylactic reaction at the site at which the antiserum had been injected.
(§3) On the test days, the test substances were dissolved in distilled water which contained 1% by volume of dimethylformamide and 1% by volume of Tween®20 (polyoxyethylene(20) sorbitan monolaurate). One hour before the challenging ovalbumin administration, each animal received 2×10^-5 mol/kg of test substance administered orally in 0.5 ml of solution. A control group received only the solvent for comparison.
(§4) The oedematous anaphylactic (P.C.A.) and anaphylactoid (histamine-induced) reactions caused by the challenging i.v. ovalbumin injection, which are manifested by oedema formation, swelling and exudation of blue dye, were evaluated 30 minutes after challenge by the i.v. ovalbumin injection. This was done by visual determination of the extent to which the blue dye emerges at the sites of oedema formation. The percentage inhibition of anaphylactic and anaphylactoid reactions caused by the test substances was determined in comparison with the reactions of the control animals not treated with test substance with the aid of comparison scales.
(§5) The results obtained by the above test methods using compounds of the formula I are shown in the following Table A. The example numbers given for the compounds of formula I relate to the following preparation examples.

A short description of data set [2]: Determination of the minimum toxic dose. Further details: species or system male mice. Particulars: mouse, in vivo, po, 300 mg/kg, 1440 min. As to the method: 2. Determination of the minimum toxic dose.
Maximum doses of 300 mg/kg of the test substance were administered orally to male mice weighing 20-25 g. The animals were observed carefully for 3 hours for toxicity symptoms. In addition, all symptoms and deaths over a period of 24 hours after administration were recorded. Associated symptoms were also observed and recorded. If death or severe toxic symptoms were observed, further mice were administered increasingly lower doses. The lowest dose which caused death or severe toxic symptoms is given as the minimum toxic dose in the following Table B.

The test system of data set [3] is P.A.F.-induced aggregation of platelets from rabbit blood. The data set can be described thus: Anti-P.A.F. effect in vitro: inhibition of P.A.F.-induced platelet aggregation. Type of data set: cell-based, rabbit (New Zealand hybrids). Particulars: Oryctolagus cuniculus, Platelet, test substance concentration 10^-5 mol/l. The text has this: 4. Determination of anti-P.A.F. effect in vitro.
Platelet-activating factor (P.A.F.) is a phospholipid mediator which has several effects. The activation of platelet aggregation leads to the induction of protracted broncho contractions and hyperreactivity of the airways.
The effects of the test substances on platelet aggregation induced by adding P.A.F. to a platelet suspension obtained from rabbit blood was investigated by the method described by Mikashima et al. (Jap. J. Pharmacol. 44 (1987) 387-391).
A suspension of platelets originating from rabbit blood was used which contained 4×10^9 platelets/ml in a modified Tyrode buffer solution adjusted to pH 7.4. Tyrode solution is an aqueous solution containing 136.9 mmol of NaCl, 2.68 mmol of KCl, 2.31 mmol of CaCl2, 1.0 mmol of MgCl2, 11.9 mmol of NaHCO3, 1.45 mmol of NaH2 PO4 and 5.55 mmol of glucose per liter. This solution was modified by adding 1.3 mM/l of CaCl2 and 2.5 g/l of gelatin. The platelets were obtained from 10 ml blood samples from each of three rabbits (New Zealand hybrids, body weight 3-4 kg). For this, the blood samples were treated with ethylenediaminetetraacetic acid and washed by the method of Artley et al. (Brit. J. Hamatol. 19 (1970), 7-17). A platelet-rich plasma was then initially separated by centrifugation (20 minutes at 400×g). The platelets were separated from the plasma by centrifuging again for 15 minutes at 1400×g. After centrifuging, the platelets remaining as a sediment were resuspended in a calcium-free Tyrode buffer solution. 0.4 mmol of lysine acetylsalicylate were then added and after 15 minutes the blood platelets were sedimented again. The sediment was resuspended in the abovementioned modified Tyrode buffer solution, and the number of platelets in the resulting suspension was adjusted to the desired content.
A 40×10^-9 molar P.A.F. solution was used as the reagent. This solution was prepared from a 1.8×10^-3 molar stock solution in chloroform. For this, a 10μl sample of the stock solution was evaporated to dryness and redissolved in 180 μl of the modified Tyrode solution, to which 0.25% of dilapidated bovine serum albumin had been added. 10^-5 molar working solutions were then prepared from this and stored frozen. Samples of these solutions were appropriately diluted for the tests.
To carry out the tests, 50 μl of the platelet solution and 10 μl of a 40×10^-5 molar solution of the compound to be investigated were added to 330 μl of the modified Tyrode buffer solution with stirring (1000 rpm) in an aggregation tube provided with a small magnetic stirrer. This corresponds to a final test substance concentration of 10^-5 mol/l. After a preincubation time of 90seconds, 10 μl of the P.A.F. preparation were added. The aggregation occurring in the aggregation tubes was measured for 4-5 minutes using a computerized aggregometer.
The aggregation occurring in the test tubes containing only platelet suspension was rated as 0%. The aggregation occurring in test tubes containing platelet suspension and P.A.F. preparation was rated as 100%. The aggregation which still occurred in the presence of the test substances (i.e. during inhibition of the P.A.F.-induced platelet aggregation increase) was measured, and the resulting aggregation inhibition is calculated from this in %.

The subject of data set [4] is Histamine-induced anaphylactoid reactions. Kind of data set: Inhibition of anaphylactoid cutaneous reaction induced by histamine. Type of data set: in vivo, rat (Sprague-Dawley). The settings on record: Rattus norvegicus, 1 h; rats, 2 × 10^-5 mol/kg p.o., one hour before challenge; histamine intradermal. As to the method: as §1, §2
To determine the histamine-induced anaphylactoid skin reaction, the animals were injected intradermally in the flank opposite to the antiserum administration with 50 μl of a physiological saline solution containing 0.8 mg/ml of histamine directly before the i.v. injection of the solution containing the ovalbumin and the blue dye.
as §3, §4, §5

Another data set concerns the target T1, 5-lipoxygenase (Mus musculus, UniProt P48999).
T1 construct: A cell suspension containing peritoneal cells of male mice 8-10 weeks old was obtained; endogenous in cells; host or cells: mouse peritoneal macrophages (male mice 8-10 weeks old), zymosan-stimulated
T1 sequence (P48999 1-674): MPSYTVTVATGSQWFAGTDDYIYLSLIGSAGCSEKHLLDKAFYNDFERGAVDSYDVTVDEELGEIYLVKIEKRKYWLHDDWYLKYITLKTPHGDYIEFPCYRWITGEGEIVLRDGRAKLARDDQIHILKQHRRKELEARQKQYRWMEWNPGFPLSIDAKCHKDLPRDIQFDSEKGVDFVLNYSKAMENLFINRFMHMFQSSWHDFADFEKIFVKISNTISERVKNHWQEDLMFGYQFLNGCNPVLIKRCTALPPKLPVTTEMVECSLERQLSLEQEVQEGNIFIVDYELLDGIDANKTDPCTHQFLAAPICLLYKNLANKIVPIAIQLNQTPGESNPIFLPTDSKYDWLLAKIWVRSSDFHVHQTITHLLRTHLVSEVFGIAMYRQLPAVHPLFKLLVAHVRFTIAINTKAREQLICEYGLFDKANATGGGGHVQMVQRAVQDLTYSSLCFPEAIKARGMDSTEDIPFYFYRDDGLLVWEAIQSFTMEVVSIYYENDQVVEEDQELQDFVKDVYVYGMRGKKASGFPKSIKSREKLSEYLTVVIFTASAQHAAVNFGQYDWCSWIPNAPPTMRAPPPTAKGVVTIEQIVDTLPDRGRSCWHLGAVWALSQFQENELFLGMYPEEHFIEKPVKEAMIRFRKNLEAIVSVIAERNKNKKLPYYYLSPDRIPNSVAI
The data set can be described thus: 5-lipoxygenase inhibition: release of LTC4 from zymosan-stimulated mouse peritoneal macrophage cells. It is filed as cell-based. Particulars: 10^-5 mol/l, read-out: In vitro % inhibition effect on the release of LTC4. The text has this: (§6) 5. In vitro determination of cyclooxygenase inhibition and 5-lipoxygenase inhibition.
(§7) After activation of the cell, arachidonic acid contained in cell membranes is metabolized in two ways. Leukotrienes, inter alia leukotriene C4, are formed under the action of the enzyme 5-lipoxygenase (5-LO), and prostanoids are formed under the action of the enzyme cyclooxygenase (CO). In in vitro systems, the metabolites are secreted from the cell.
(§8) To investigate the cyclooxygenase-inhibiting and the 5-lipoxygenase-inhibiting properties, the inhibitory effect of the test substances on the biosynthesis of the arachidonic acid derivatives leukotriene C4 (LTC4) and 6-ketoprostaglandin F1 α (6-keto-PGF1 α) is determined in vitro on mouse peritoneal macrophage cells. This was accomplished by determining the LTC4 and 6-keto-PGF1 α contents in a culture medium of mouse peritoneal macrophage cells by zymosan stimulation as described by Scott et al. (J. Exp. Med. 152 (1980), 324-335) and by Fradin et al. (Prostaglandins, 33 (1987), 579-589).
(§9) A cell suspension containing peritoneal cells of male mice 8-10 weeks old was obtained in a known manner. A commercially available cell culture solution (RPMI 1640 from Messrs. Gibco) was used to which heparin (I0 international units/ml) and antibiotics were added according to the recipe of Bonney et al. (Biochem. J. 176 (1978) 422-433). The cell suspension was adjusted to a cell concentration of 10^6 cells per ml and distributed uniformly on titer plates containing […] (wells). These were kept for two hours in a humidified incubator filled with air enriched with 7% CO2. Cells not adhering to the titer cell walls were then removed by washing. The remaining macrophage cells adhering to the walls were incubated for about 12 hours in a suspension medium to which 0.1% bovine serum albumin (BSA) were added. The suspension medium was then replaced by a Hanks balanced salt solution (HBSS) containing 10 mM Hepes (hydroxyethyl-piperazinoethanesulfonic acid), to which a 0.1% strength solution of the test substances in aqueous, 1% strength dimethylformamide or only the solvent had been added. After 15 minutes the arachidonic acid metabolism was stimulated by adding 10 particles of zymosan (=glycoproteinmixture, isolated from cell walls of beer yeast, Saccharomyces cerevisiae, manufactured by Sigma Chemical Co., Munich) per titer cell. After 2 hours, samples of each of the supernatant liquids were investigated for their 6-keto-PGF1 α and LTC4 contents by means of an enzyme immunoassay (EIA) carried out by the method of Pradelles et al. (Analytical Chem. 57 (1985), 1170-1173). The determination of LTC4 and the determination of 6-keto-PGF1 α were each carried out in comparison with a comparative scale on suitable dilutions of the samples (1:50 to 1:250 for the LTC4 determination and 1:250 to 1:1250 for the 6-keto-PGF1 α determination). To determine the inhibitory effect of a 10^-5 molar concentration of the compounds, the amount of reference eicosanoids was determined and the inhibitory effect was calculated from this in % inhibition compared to the measurements of the zymosan controls.

For the next data set, the target named is T2, cyclooxygenase (Mus musculus, UniProt P22437).
T2 construct: A cell suspension containing peritoneal cells of male mice 8-10 weeks old was obtained; endogenous in cells; host or cells: mouse peritoneal macrophages (male mice 8-10 weeks old), zymosan-stimulated
T2 sequence (P22437 27-602): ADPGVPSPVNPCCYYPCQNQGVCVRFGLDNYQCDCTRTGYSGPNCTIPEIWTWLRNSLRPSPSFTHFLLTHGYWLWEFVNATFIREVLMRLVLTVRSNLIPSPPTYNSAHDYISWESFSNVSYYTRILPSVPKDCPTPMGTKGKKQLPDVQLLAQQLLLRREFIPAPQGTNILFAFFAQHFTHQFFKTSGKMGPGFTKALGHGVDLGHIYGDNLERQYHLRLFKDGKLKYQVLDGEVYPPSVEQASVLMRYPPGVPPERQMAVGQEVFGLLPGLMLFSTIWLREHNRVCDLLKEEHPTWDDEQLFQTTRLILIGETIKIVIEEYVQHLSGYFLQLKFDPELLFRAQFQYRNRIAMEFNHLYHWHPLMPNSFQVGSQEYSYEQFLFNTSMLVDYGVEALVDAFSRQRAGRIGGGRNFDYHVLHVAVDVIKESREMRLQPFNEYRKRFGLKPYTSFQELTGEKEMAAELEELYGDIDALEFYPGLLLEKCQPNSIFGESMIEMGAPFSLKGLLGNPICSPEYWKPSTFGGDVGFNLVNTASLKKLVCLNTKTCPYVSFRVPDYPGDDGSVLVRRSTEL
Kind of data set: Cyclooxygenase inhibition: release of 6-keto-PGF1 α from zymosan-stimulated mouse peritoneal macrophage cells. Type of data set: cell-based. Particulars: 10^-5 mol/l, read-out: In vitro % inhibition effect on the release of 6-keto-PGF1 α.
From the text: as §6, §7, §8, §9

Take `Cc1ccnc(N2CCN(CCc3c(-c4ccccc4)n4c5c(cccc35)CCC4)CC2)c1` [Example 40]: the inhibition in vivo at 20 µmol/kg in data set [1] was determined as 70%; in data set [4], 43%. Further, the “Minimum toxic dose (lowest dose which caused death or severe toxic symptoms)” value in data set [2] was 300 mg/kg. In data set [3], testing at 10 µM gave an inhibition of 100%.

`Cc1c(CCN2CCC(C(=O)c3ccccc3)CC2)c2cccc3c2n1CCC3C` (stereo not drawn) [Example 56]: the values for the inhibition in vivo at 20 µmol/kg in data set [1] and in data set [4] were 80% and 50%, respectively. In addition, the “Minimum toxic dose (lowest dose which caused death or severe toxic symptoms)” value in data set [2] worked out at 300 mg/kg. This compound yielded an inhibition at 10 µM in data set [3] of 42%.

As to `Cc1ccnc(N2CCN(CCc3c(C)n4c5c(cc(C(=O)c6ccc(Cl)cc6)cc35)CCC4)CC2)c1` [Example 82], the figures for the inhibition at 10 µM on 5-lipoxygenase and on cyclooxygenase were 9% and 58%, respectively.

Take `Cc1ccnc(N2CCN(CCc3c(C)n4c5c(cc(CC6CCCCC6)cc35)CCC4)CC2)c1` [Example 84]: the inhibition at 10 µM came to 20% at 5-lipoxygenase and 46% at cyclooxygenase.

In general, inhibition in vivo refers to the relative decrease from the control value, in per cent. Lower therefore signals little suppression. As usually defined, the inhibition is the drop in the measured response relative to a control, in per cent.
